Reference: ChEMBL document CHEMBL4316655, “Sesquiterpenoids from the Endophytic Fungus Rhinocladiella similis” (J Nat Prod, 2019)
≈ marks a conversion by molar mass, not a printed value.

Legend:
L5178Y = experiment: Cytotoxicity against mouse L5178Y cells by MTT assay; type: functional, cell-based
Staphylococcus aureus = experiment: Antibacterial activity against Staphylococcus aureus ATCC 29213 by broth microdilution method; type: functional
Enterococcus faecium = experiment: Antibacterial activity against Enterococcus faecium ATCC 35667 by broth microdilution method; type: functional
Klebsiella pneumoniae = experiment: Antibacterial activity against Klebsiella pneumoniae ATCC 13883 by broth microdilution method; type: functional

In the case of `CC(C)[C@H]1CC[C@@](O)(COC(=O)C2=C[C@@H]3[C@@H](C(C)C)CC[C@@](O)(CCl)[C@H]3C(=O)OC2)[C@H]2C(=O)OCC(C(=O)O)=C[C@H]12`, the IC50 (L5178Y) is reported as 5 µM.
Work on `CC(C)[C@H]1CC[C@H](CO)[C@@H]2[C@@H]1C=C(C(=O)O)C[C@H]2O` yielded an IC50 (L5178Y) of 8.7 µM.
`CC(C)[C@H]1CCC(CO)=C[C@@H]1/C=C(\CO)C(=O)O` [GLIOCLADIC ACID] showed an IC50 (L5178Y) of 24.4 µM.
For `CC(C)[C@H]1CC[C@@](O)(CCl)[C@H]2C(=O)OCC(C(=O)O)=C[C@H]12` [HEPTELIDIC ACID CHLOROHYDRIN], the MIC (Staphylococcus aureus) was 50 µM (≈ 15.8 µg/mL), the MIC (Enterococcus faecium) was 50 µM (≈ 15.8 µg/mL) and the MIC (Klebsiella pneumoniae) was 100 µM (≈ 31.7 µg/mL).
